The nature of one series: physchem. The note with it: for solubility: 20 °C, organic solvent or mixture. As for the experimental part: A) Pyraclostrobin was added at 20° C. to benzaldehyde dimethyl acetal or p-anisaldehyde dimethyl acetal, with stirring.
A short description of series [1]: Flash point (DIN 53213-1). It counts as physicochemical. The settings on record: measured as specified in DIN 53213-1.
The conditions of series [2]: EU directive 67/548/EEC, 1999/45/EC or 88/379/EEC; cited from earlier work.
The procedure of series [3]: The solubility of benzaldehyde dimethyl acetal or p-anisaldehyde dimethyl acetal in water at 20° C. was analyzed.
A short description of the next series: Viscosity. It counts as physicochemical. The note with it: 20° C.

SMILES strings stand for the structures. Converted amounts (≈) assume the structure as drawn.

For the compound `C#CCN1C(=O)C(F)(F)Oc2cc(F)c(-n3c(=O)n(C)c(=S)n(C)c3=O)cc21` [1,5-dimethyl-6-thioxo-3-(2,2,7-trifluoro-3-oxo-4-(prop-2-ynyl)-3,4-dihydro-2H-benzo[b][1,4]oxazin-6-yl)-1,3,5-triazinan-2,4-dione], the solubility was determined as 19 mg/mL (≈ 46.1 mM) in the series “physchem” (maximum solubility in Solvesso 150 ND), 63 mg/mL (≈ 153 mM) in the series “physchem” (maximum solubility in Solvesso 200 ND) and 214 mg/mL (≈ 519 mM) in the series “physchem” (maximum solubility in p-anisaldehyde dimethyl acetal).

Regarding `COC(OC)c1ccccc1` [Benzaldehyde dimethyl acetal, reference compound], in series [1], the flash point was determined as 69 °C. In addition, in series [2], the “EU R phrase” value was “R22—harmful if swallowed” and the EU hazard classification result is “Xn—harmful”.

Take `COC(=O)N(OC)c1ccccc1COc1ccn(-c2ccc(Cl)cc2)n1` [Pyraclostrobin, reference compound]: in the series “physchem” (20° C., with stirring, solvent benzaldehyde dimethyl acetal (not inventive)), the “solubility in benzaldehyde dimethyl acetal” value was “at least 50 % by weight”. Also, the “solubility in p-anisaldehyde dimethyl acetal” value in “physchem” (20° C., with stirring, solvent p-anisaldehyde dimethyl acetal) was “at least 50 % by weight”.

Compound `COc1ccc(C(OC)OC)cc1` [p-Anisaldehyde dimethyl acetal] gave a solubility in water in series [3] of no more than 0.1 % by weight. The flash point in series [1] amounted to 114 °C. The viscosity in the series “Viscosity” is 5.5 mPas. In series [2], the “EU R phrase” value was “without R phrase” and the EU hazard classification result is “without classification”.

As a reminder, the solubility is the dissolved amount per volume that the medium holds.

The values are drawn from patent publication US9585382B2, “Composition comprising a pesticide and an acetal solvent” (priority 2011, dated 2017).
